Results published in patent US8273875B2, “High performance luminescent compounds” (University of Notre Dame du Lac, priority 2009, dated 2012).

Assay: Photobleaching of biotinylated fluorophores on avidin-coated magnetic particles, epifluorescent microscope
Assay type: physicochemical
Conditions: bound to 1.3 μm avidin-coated magnetic particles, constant excitation, images every 30 seconds
Description: FIG. 6 illustrates a photobleaching profile of biotinylated fluorophores, in accordance with various embodiments.
In one specific, non-limiting example, the photobleaching of commercially available biotin-4-carboxyfluorescein (CF-biotin), and biotin-squaraine rotaxane (SQR-biotin) was examined by measuring the half-life of each of the probes. The dyes were incubated in excess with 1.3 μm magnetic particles coated in avidin. Following the incubation, the particles were washed of any unbound fluorophore, and the samples were then imaged on an epifluorescent microscope. The samples remained under constant excitation and images were captured every 30 seconds. Using ImageJ software, a region of interest (ROI) was drawn around the imaged magnetic particles and the mean pixel intensity was measured for each image.

biotin-4-carboxyfluorescein [CF-biotin]
photobleaching profile (fluorescence intensity versus time): dramatic photobleaching
